Consider four molecules from patent US8338465B2, “Cyclic carboxylic acid rhodanine derivatives for the treatment and prevention of tuberculosis” (priority 2006, dated 2012).

In general, IC50 refers to the concentration that gives 50% inhibition. As a reminder, the MIC is the least concentration at which growth counts as inhibited.

The target in test [1] is T1, dihydrolipoamide acyltransferase (DlaT) (Mycobacterium tuberculosis, UniProt P9WIS7).
T1 sequence (P9WIS7 1-553): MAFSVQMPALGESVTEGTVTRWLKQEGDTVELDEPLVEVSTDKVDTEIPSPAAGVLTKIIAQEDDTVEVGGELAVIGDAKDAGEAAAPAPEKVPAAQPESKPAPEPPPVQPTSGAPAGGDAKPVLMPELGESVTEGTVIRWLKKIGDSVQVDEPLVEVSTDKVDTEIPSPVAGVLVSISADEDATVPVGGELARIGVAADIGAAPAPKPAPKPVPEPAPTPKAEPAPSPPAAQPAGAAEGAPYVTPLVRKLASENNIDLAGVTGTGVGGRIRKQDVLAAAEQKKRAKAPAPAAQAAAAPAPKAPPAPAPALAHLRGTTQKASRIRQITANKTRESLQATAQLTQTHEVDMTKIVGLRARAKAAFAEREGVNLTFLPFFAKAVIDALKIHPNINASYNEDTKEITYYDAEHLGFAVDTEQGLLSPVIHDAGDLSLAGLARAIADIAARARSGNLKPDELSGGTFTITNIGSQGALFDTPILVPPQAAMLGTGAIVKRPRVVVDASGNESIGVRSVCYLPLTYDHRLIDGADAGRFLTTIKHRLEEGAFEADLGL
As to the kind of experiment: DlaT inhibition (Dlat IC50); DTNB peroxidase assay with Lpd, DlaT and AhpD. The settings on record: for IC50: Dlat IC50 category. Format: biochemical.

Test [2] concerns the target T2, Mtb's PDH (Mycobacterium tuberculosis, UniProt P9WIS7).
T2 sequence (P9WIS7 1-553): T1 sequence (P9WIS7 1-553)
In words: PDH assay with Lpd, DlaT and AceE (NADH formation at 340 nm). The test is classed as biochemical. The settings on record: preincubation at room temperature, remaining activity over time; FIG. 4. The procedure:
Reaction mixtures containing 200 nM Lpd, 350 nM DlaT, 200 nM AceE with or without 1 mM NAD+, 1 mM pyruvate, […] and […] D155931 were preincubated at room temperature and […] tested for remaining activity over time by PDH assay.

The subject of test [3] is Mycobacterium bovis var. Bacille Calmette Guerin (BCG). Format: cell-based. The settings on record: pH 5.5 or pH 4.5, plus or minus NaNO2, 4 days, CFU; FIGS. 6 and 7.
The test system of test [4] is bacteria and yeast. The settings on record: 10^4-10^5 CFU/mL inoculum.
Experimental: (§1) Bacteria were grown to mid-logarithmic phase, diluted to A600=0.1 and inoculated in 200 μl in 96-well plates in the presence of serial dilutions of compounds or vehicle control (DMSO). MICs (minimal concentrations that prevented bacterial growth) were determined at A600 after 24 hours incubation at 37° C.
The test system of test [5] is Staphylococcus aureus. In words: MIC determination (A600 after 24 hours). The settings on record: for MIC: Staphylococcus aureus, 10^4-10^5 CFU/mL inoculum.
Experimental: as §1
For test [6], the system named is Enterococcus faecalis. In words: MIC determination (A600 after 24 hours). As to conditions: for MIC: Enterococcus faecalis.
Experimental: as §1
Test [7] has as its system PDH complex from porcine heart. As to the kind of experiment: PDH assay with porcine heart PDH complex. As to conditions: increasing concentrations up the limit of its solubility; FIG. 5.
The subject of test [8] is Mycobacterium tuberculosis. In words: Killing of M. tuberculosis at acidic pH plus or minus nitrite (CFU counts). The settings on record: pH 5.5 or pH 4.5, plus or minus NaNO2, 4 days, FIG. 8.
Text: In vitro, RNI can be generated under physiologically relevant conditions by provision of nitrite at a mildly acidified pH. During infection, Mtb resides chiefly in the phagosome of macrophages, where the pH is ˜6 in immunologically non-activated cells and can fall to ˜4.5 in those that have been activated by interferon-γ. Activated macrophages produce RNI, the most abundant of which is the accumulating autoxidation product of NO, nitrite (NO2^−). In the present assay, the intraphagosomal milieu of moderately activated macrophages was partially mimicked by culturing mycobacteria at pH 5.5 with nitrite. […] At pH 5.5, 0.5 mM nitrite generates an amount of NO no greater than that released by 3×10^5 activated macrophages in 0.5 mL in 24 hours. In the present assay pH 5.5, with or without 0.5 mM nitrite, was used.
M. tuberculosis was grown in 7H9+0.2% glycerol+0.05% Tween-80+10% ADN, pH 6.6. CFU were enumerated on 7H11 agar plates with 10% OADC enrichment. Mid-log cultures (A580 0.8-1.0) were prepared as single cell suspensions in 7H9 at pH 5.5 or pH 4.5 and diluted to 0.1 (A580). Inoculum was determined by CFU. Bacteria were incubated with compounds plus or minus 0.5 mM NaNO2 (pH 5.5) or 0.05 NaNO2 (pH 4.5) in 96 well plates in 200 μl for 4 days and plated for CFU counts after serial dilution in 7H9, pH 6.6.
Setting [9] is: Table 21, Prodrugs (Examples U1 to U10).

Where “and” joins values, the source holds several entries; their conditions need not be identical. Equal entries are not always repeated. Structures can show the parent of a compound that is named as a salt. Where two headings read alike, the source gives them in different places.

`O=C(O)c1cccc(N2C(=O)C(=Cc3ccc(-c4ccccc4Cl)o3)SC2=S)c1` (single isomer, unassigned) [Mycopyrin 5, 3-[5[[5-(2-chlorophenyl)-2-furanyl]methylene]-4-oxo-2-thioxo-3-thiazolidinyl]benzoic acid]: the IC50 in test [1] (Table 1, Compounds A1 to A294) lay within 11 to 40 µM. Further, the “reversibility of DlaT inhibition” value in test [1] (in presence of NADH, preincubation at room temperature, remaining activity over time, FIG. 3) was “irreversible inhibitor”. The “type of inhibition of Mtb's PDH” value in test [2] is given as “time-dependent, substrate-independent inhibitor”. Further, the “bactericidal activity to M. bovis BCG” value in test [3] is recorded as “bactericidal”. Further, the MIC in test [4] (Escherichia coli, pH 5.5) was >50 μM and >22 μg/ml; in test [4] (Escherichia coli, pH 6.6), >50 μM and >22 μg/ml; in test [4] (Pseudomonas aeruginosa, pH 5.5), >50 μM and >22 μg/ml; in test [4] (Pseudomonas aeruginosa, pH 6.6) it was >50 μM and >22 μg/ml; in test [5] (pH 5.5, Staphylococcus aureus (brain heart infusion), pH 5.5), 5 µM and 2.2 µg/mL; in test [5] (pH 5.5, Staphylococcus aureus (nutrient broth), pH 5.5) it was 1 µM and 0.43 µg/mL. The MIC in test [5] (pH 6.6, Staphylococcus aureus (brain heart infusion), pH 6.6) is > 50 µM and > 22 µg/mL; in test [5] (pH 6.6, Staphylococcus aureus (nutrient broth), pH 6.6), 2.5 µM and 1.1 µg/mL; in test [6] (pH 5.5), 5 µM and 2.2 µg/mL; in test [6] (pH 6.6) it was > 50 µM and > 22 µg/mL. Besides, the “killing of Staphylococcus aureus” value in test [5] (Table 22) is reported as “kills”. In addition, the “killing of Enterococcus faecalis” value in test [6] (Table 22) is “kills”. In addition, the “inhibition of porcine PDH” value in test [7] was “does not inhibit”. For the same molecule, the “bactericidal activity to Mycobacterium tuberculosis” value in test [8] is on record as “bactericidal”.
In the case of `CSc1ccc(-c2ccc(C=C3SC(=S)N(C4CCCC(C(=O)NC(CO)CO)C4)C3=O)o2)cc1` (stereo not drawn) [Compound U8, 3-{5-[1-[5-(4-Methylsulfanyl-phenyl)-furan-2-yl]-methylidene]-4-oxo-2-thioxo-thiazolidin-3-yl}-cyclohexanecarboxylic acid (2-hydroxy-1-hydroxymethyl-ethyl)-amide], the IC50 in test [1] (setting [9]) lay within 41 to 80 µM.
The same measure, in the same setting: under `CS(=O)(=O)c1ccc(-c2ccc(C=C3SC(=S)N(C4CCCC(C(=O)OCCCO)C4)C3=O)o2)cc1` (stereo not drawn) [Compound U9, 3-{5-[1-[5-(4-Methanesulfonyl-phenyl)-furan-2-yl]-methylidene]-4-oxo-2-thioxo-thiazolidin-3-yl}-cyclohexanecarboxylic acid 3-hydroxy-propyl ester] stands 41 to 80 µM.
Same read-out and setting: the result for `CSc1ccc(-c2ccc(C=C3SC(=S)N(C4CCCC(C(=O)OCCN(CCO)CCO)C4)C3=O)o2)cc1` (stereo not drawn) [Compound U10, 3-{5-[1-[5-(4-Methylsulfanyl-phenyl)-furan-2-yl]-methylidene]-4-oxo-2-thioxo-thiazolidin-3-yl}-cyclohexanecarboxylic acid 2-[bis-(2-hydroxy-ethyl)-amino]-ethyl ester hydrochloride] reads under 10 µM.
